Measurements published in patent US20180133223A1, “COMBINATION THERAPY WITH A PHOSPHOINOSITIDE 3-KINASE INHIBITOR WITH A ZINC BINDING MOIETY” (Curis, Inc., priority 2016, published 2018).
Marks after values point to notes of the source that are not given here. Each block holds one compound with its values, some of them ahead of it.

Legend:
WSUDLCL2 = experiment: Tumor growth inhibition, WSUDLCL2; type: in vivo; details: WSUDLCL2, 100 mg/kg
[1] = Oral bioavailability in animal models; type: in vivo
[2] = Tumor tissue uptake in xenograft tumor bearing mice; type: in vivo; details: oral or intravenous dosing
U2932 = experiment: Tumor growth inhibition, U2932; type: in vivo; details: U2932, 100 mg/kg
[3] = tested on: HDACs (HeLa cell nuclear extracts); experiment: HDAC activity assay (Biomol Color de Lys), HeLa cell nuclear extracts; type: biochemical; details: HeLa cell nuclear extracts as source of HDACs
Description: HDAC inhibitory activity was assessed using the Biomol Color de Lys system (AK-500, Biomol, Plymouth Meeting, Pa.). Briefly, HeLa cell nuclear extracts were used as a source of HDACs. Different concentrations of test compounds were serially diluted in dimethylsulfoxide (DMSO) and added to HeLa cell nuclear extracts in the presence of a colorimetric artificial substrate. Final assay condition contained 50 mM Tris/Cl, pH 8.0, 137 mM NaCl, 2.7 mM KCl and 1 mM MgCl2. Reactions were carried in room temperature (25° C.) for 1 hour before addition of developer for termination. Relative enzyme activity was measured in the WALLAC Victor II 1420 microplate reader as fluorescence intensity (excitation: 350-380 nm; emission: 440-460 nm). Data were analyzed using GraphPad Prism (v4.0a) with a sigmoidal dose response curve fitting for IC50 calculation.

[4] = Genotoxicity testing, Ames test
KARPAS422 = experiment: Tumor growth inhibition, KARPAS422; type: in vivo; details: KARPAS422, 100 mg/kg
DOHH2 = DOHH2 diffuse large B cell lymphoma xenograft model; type: in vivo, mice; details: DOHH2, 100 mg/kg
Description: Six- to 9-week-old female immunodeficient Fox Chase SCID Beige mice obtained from Charles River Laboratories (Wilmington, Mass.) were subcutaneously injected with 5×10^6 cells in a medium suspension of 100 to 200 μL into the right hind flank region. The treatment was started when the average tumor size reached approximately 100 to 200 mm^3. […] Venetoclax was formulated in 60% phosal 50PG, 30% PEG 400, 10% ethanol (Vehicle 2; Sigma Aldrich, St. Louis, Mo.).
Varying doses of Compound 1 alone, venetoclax alone, the two agents in combination or vehicle were administered orally as per Institutional Animal Care and Use Committee guidelines. […] Venetoclax and Vehicle 2 were dosed daily for 21 days.
Tumor size was measured twice weekly and the volume was expressed in mm^3 using the formula, V=0.5a×b^2, where a and b were the long and short diameters of the tumor, respectively. […]
(§1) Differences between values obtained in tumors treated with different experimental conditions were determined using the Student's t-test on GraphPad Prism 5.0 (Graphpad Software). p<0.05 was considered as statistically significant.

OCILY3 = experiment: Tumor growth inhibition, OCILY3; type: in vivo; details: OCILY3, 100 mg/kg
SUDHL4 = experiment: SU-DHL-4 diffuse large B cell lymphoma xenograft model; type: in vivo, mice; details: SUDHL4, 100 mg/kg
Description: 7- to 9-week-old female immunodeficient Fox Chase SCID Beige mice (15-24 g) obtained from Charles River Laboratories (Wilmington, Mass.) were subcutaneously injected with 5×10^6 SU-DHL-4 cells in a medium suspension of 100 μL cold PBS into the right hind flank region. The treatment was started 29 days following implantation; the average tumor size reached was 126 mm^3. […] Venetoclax (ABT-199) was dissolved in Vehicle 2 (60% phosal 50 PG, 30% PEG 400 and 10% ethanol) to a concentration of 20 mg/mL.
In Groups H to K, Compound 1 and venetoclax were dosed within one minute of each other.
Tumor size was measured twice weekly and the volume was expressed in mm^3 using the formula, V=0.5a×b^2, where a and b were the long and short diameters of the tumor, respectively. The tumor size was then used for the calculation of tumor growth inhibition (TGI)=(1−(T1−T0)/(C1−C0))×100, where C1=mean tumor volume of control mice at time t; T1=mean tumor volume of treated mice at time t; C0=mean tumor volume of control mice at time 0; and T0=mean tumor volume of treated mice at time 0.
as §1

xenograft tumor = experiment: Mouse xenograft tumor models; type: in vivo; details: oral or intravenous administration
U2932 cells = experiment: Cancer cell proliferation / drug combination (CellTiter-Glo); type: cell-based; details: U2932, ABC DLBCL, single agent; read-out: ABT-199 EC50
Description: (§2) DLBCL cancer cell lines were purchased from the American Type Culture Collection (Manassas, Va.) and German Collection of Microorganisms and Cell Cultures (Braunschweig, Germany). Cells were maintained according to manufacturing recommendation and incubated at 37° C. in a humidified atmosphere of 5% CO2. Growth media was changed every 2 to 3 days and cells were maintained at a density of 2×10^6 to 4×10^6 cells/mL. Exponentially growing cell cultures were used for all experiments described below.
(§3) Cells were plated at densities of 2×10^4 in 96-well flat-bottomed plates with the recommended culture medium for proliferation assays. Cells were then incubated with indicated compounds at various concentrations for indicated amount of time in culture medium supplemented with 10% (v/v) FBS. Cell viability was assessed using the […]-GLO® Luminescent Cell Viability Assay (Promega, Madison, Wis.). GraphPad Prism 5.0 (Graphpad Software, La Jolla, Calif.) was used for curve fitting and IC50 calculation. Two independent experiments with duplicates were performed for each experiment.
(§4) Drug combination synergy was determined based on dose-effect curves generated as cell proliferation after 24 hours of treatment.

WSUDLCL2 cells = experiment: as above; type: cell-based
Description: as §2, §3, §4

SUDHL4 cells = experiment: as above; type: cell-based
Description: as §2, §3, §4

DOHH2 cells = experiment: as above; type: cell-based; details: DOHH2, Follicular Lymphoma, single agent; read-out: ABT-199 EC50
Description: as §2, §3, §4

OCILY3 cells = experiment: as above; type: cell-based
Description: as §2, §3, §4

KARPAS422 cells = experiment: as above; type: cell-based
Description: as §2, §3, §4

Compound: COc1ccc(-c2nc(N3CCOCC3)c3sc(CN(C)c4ncc(C(=O)NO)cn4)cc3n2)cn1 [Compound 1, N-hydroxy-2-(((2-(6-methoxypyridin-3-yl)-4-morpholinothieno[3,2-d]pyrimidin-6-yl)methyl)(methyl)amino)pyrimidine-5-carboxamide]
Compound 1 %TGI (100 mg/kg) (WSUDLCL2): 69%
oral bioavailability [1]: significant oral bioavailability
uptake by the tumor tissue [2]: significant uptake by the tumor tissue
Compound 1 %TGI (100 mg/kg) (U2932): 97%
IC50 [3]: < 0.1 µM
safety profile, genotoxicity (Ames test) [4]: favorable safety profile
Compound 1 %TGI (100 mg/kg) (KARPAS422): 33%
Compound 1 %TGI (100 mg/kg) (DOHH2): 56%
Compound 1 %TGI (100 mg/kg) (OCILY3): 23%
Compound 1 %TGI (100 mg/kg) (SUDHL4): 47%*
antitumor activity (xenograft tumor): substantial antitumor activity

EC50 (U2932 cells): 0.476 µM
EC50 (WSUDLCL2 cells; WSUDLCL2, GCB DLBCL, single agent, read-out: ABT-199 EC50): 3.66 µM
EC50 (SUDHL4 cells; SUDHL4, GBC DLBCL, single agent, read-out: ABT-199 EC50): 2.13 µM
EC50 (DOHH2 cells): 0.133 µM
EC50 (OCILY3 cells; OCILY3, ABC DLBCL, single agent, read-out: ABT-199 EC50): 20 µM
EC50 (KARPAS422 cells; KARPAS422, Follicular Lymphoma, single agent, read-out: ABT-199 EC50): 15.7 µM
Compound: venetoclax [ABT-199]
sensitivity of cell line to single agent (WSUDLCL2 cells; WSUDLCL2): refractory
sensitivity of cell line to single agent (SUDHL4 cells; SUDHL4): refractory
sensitivity of cell line to single agent (OCILY3 cells; OCILY3): refractory
sensitivity of cell line to single agent (KARPAS422 cells; KARPAS422): refractory
